Assays:
GST-Bcl-2 = assay: TR-FRET binding assay, Bcl-2; conditions: TR-FRET Ki values
How it was run: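 Compounds serially diluted in DMSO from 50 μM (2× starting concentration, 10% DMSO), mixed with GST-tagged protein, F-Bak peptide probe and Tb-labeled antibody, incubated 3 h at room temperature.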

FL5.12/Bcl-2 cells = assay: FL5.12/Bcl-2 cell viability assay; type: cell-based, murine; conditions: ratio of canine platelet EC50 to FL5.12/Bcl-2 EC50
From the text: FL5.12 is an IL-3 dependent prolymphocytic murine cell line that undergoes apoptosis upon IL-3 withdrawal as a result of the upregulation of pro-apoptotic Bcl-2 proteins such as Bim and Puma. Stable overexpression of anti-apoptotic Bcl-2 protein (FL5.12/Bcl-2) protects against apoptosis induced by IL-3 withdrawal by sequestration of Bim and Puma. […] The ability of compounds to kill FL5.12/Bcl-2 cells upon IL-3 withdrawal is a direct measure of the compounds' ability to inhibit anti-apoptotic Bcl-2 protein function.
Wild type FL5.12/Bcl-2 overexpressing stable transfectants were cultured in RPMI-1640 supplemented with 2 mM L-glutamine, 10% FBS, 1 mM sodium pyruvate, 2 mM HEPES, 1% penicillin/streptomycin (Invitrogen), 57 μM β-ME, and 10% WEHI-3B conditioned medium (source of IL-3) and maintained at 37° C. containing 5% CO2. 1×10^6 cells/ml were washed 1×PBS and resuspended in medium not supplemented with 10% WEHI-3B for 48 hrs prior to cytotoxicity assays. Cells were then treated for an additional 24 hrs in the presence of various concentrations of the indicated compounds. Cell viability was assessed by CellTitre Glo assay (Promega Corp.) according to the manufacturer's recommendations.

Row | Structure (SMILES) | Binding selectivity ratio (Bcl-XL Ki/Bcl-2 Ki) (GST-Bcl-2) | Selectivity Ratio (Platelet EC50/FL5.12/Bcl-2 EC50) (FL5.12/Bcl-2 cells)
1 | CC1(C)CCC(CN2CCN(c3ccc(C(=O)NS(=O)(=O)c4ccc(NC5CCN(C6CCOCC6)CC5)c([N+](=O)[O-])c4)c(Oc4ccc5[nH]ccc5c4)c3)CC2)=C(c2ccc(Cl)cc2)C1 [Example 173, 4-(4-{[2-(4-chlorophenyl)-4,4-dimethylcyclohex-1-en-1-yl]methyl}piperazin-1-yl)-2-(1H-indol-5-yloxy)-N-({3-nitro-4-[(1-tetrahydro-2H-pyran-4-ylpiperidin-4-yl)amino]phenyl}sulfonyl)benzamide] | 204.6 | >4587
2 | O=C(NS(=O)(=O)c1ccc(NCC2CCOCC2)c([N+](=O)[O-])c1)c1ccc(N2CCN(Cc3cc(OCCN4CCCC4)ccc3-c3ccc(Cl)cc3)CC2)cc1Oc1ccccc1 [Example 138, 4-(4-{[4′-chloro-4-(2-pyrrolidin-1-ylethoxy)-1,1′-biphenyl-2-yl]methyl}piperazin-1-yl)-N-({3-nitro-4-[(tetrahydro-2H-pyran-4-ylmethyl)amino]phenyl}sulfonyl)-2-phenoxybenzamide] | 574.9 | 616
3 | CC1(C)CCC(CN2CCN(c3ccc(C(=O)NS(=O)(=O)c4ccc(NCCCN5CCOCC5)c([N+](=O)[O-])c4)c(Oc4ccc5[nH]ccc5c4)c3)CC2)=C(c2ccc(Cl)cc2)C1 [Example 52, 4-(4-{[2-(4-chlorophenyl)-4,4-dimethylcyclohex-1-en-1-yl]methyl}piperazin-1-yl)-2-(1H-indol-5-yloxy)-N-({4-[(3-morpholin-4-ylpropyl)amino]-3-nitrophenyl}sulfonyl)benzamide] | 333.9 | >3164
4 | O=C(NS(=O)(=O)c1ccc(NCC2CCOCC2)c([N+](=O)[O-])c1)c1ccc(N2CCN(Cc3ccccc3-c3ccc(Cl)cc3)CC2)cc1Oc1ccc2c(c1)CCN2 [Example 140, 4-{4-[(4′-chloro-1,1′-biphenyl-2-yl)methyl]piperazin-1-yl}-2-(2,3-dihydro-1H-indol-5-yloxy)-N-({3-nitro-4-[(tetrahydro-2H-pyran-4-ylmethyl)amino]phenyl}sulfonyl)benzamide] | >139.7 | >23
5 | CN1CCC(Nc2ccc(S(=O)(=O)NC(=O)c3ccc(N4CCN(CC5=C(c6ccc(Cl)cc6)CC(C)(C)CC5)CC4)cc3Oc3ccc4[nH]ccc4c3)cc2[N+](=O)[O-])CC1 [Example 98, 4-(4-{[2-(4-chlorophenyl)-4,4-dimethylcyclohex-1-en-1-yl]methyl}piperazin-1-yl)-2-(1H-indol-5-yloxy)-N-({4-[(1-methylpiperidin-4-yl)amino]-3-nitrophenyl}sulfonyl)benzamide] | >50769.2 | 4849
6 | CN1CCC(Nc2ccc(S(=O)(=O)NC(=O)c3ccc(N4CCN(CC5=C(c6ccc(Cl)cc6)CC(C)(C)OC5)CC4)cc3Oc3ccc4[nH]ccc4c3)cc2[N+](=O)[O-])CC1 [Example 150, 4-(4-{[4-(4-chlorophenyl)-6,6-dimethyl-5,6-dihydro-2H-pyran-3-yl]methyl}piperazin-1-yl)-2-(1H-indol-5-yloxy)-N-({4-[(1-methylpiperidin-4-yl)amino]-3-nitrophenyl}sulfonyl)benzamide] | 667 | 509
7 | CN(C)CCCNc1ccc(S(=O)(=O)NC(=O)c2ccc(N3CCN(CC4=C(c5ccc(Cl)cc5)CC(C)(C)CC4)CC3)cc2Oc2ccc3[nH]ccc3c2)cc1C(F)(F)F [Example 171, 4-(4-{[2-(4-chlorophenyl)-4,4-dimethylcyclohex-1-en-1-yl]methyl}piperazin-1-yl)-N-{[4-{[3-(dimethylamino)propyl]amino}-3-(trifluoromethyl)phenyl]sulfonyl}-2-(1H-indol-5-yloxy)benzamide] | 17.7 | >181
8 | CN1CCC(Nc2ccc(S(=O)(=O)NC(=O)c3ccc(N4CCN(CC5=C(c6ccc(Cl)cc6)CCCCCC5)CC4)cc3Oc3cccc4[nH]ccc34)cc2[N+](=O)[O-])CC1 [Example 146, 4-(4-{[2-(4-chlorophenyl)cyclooct-1-en-1-yl]methyl}piperazin-1-yl)-2-(1H-indol-4-yloxy)-N-({4-[(1-methylpiperidin-4-yl)amino]-3-nitrophenyl}sulfonyl)benzamide] | >14.9 | 145
9 | CC1(C)CCC(CN2CCN(c3ccc(C(=O)NS(=O)(=O)c4ccc(NCCCN5CCCC5)c([N+](=O)[O-])c4)c(Oc4ccc5[nH]ccc5c4)c3)CC2)=C(c2ccc(Cl)cc2)C1 [Example 97, 4-(4-{[2-(4-chlorophenyl)-4,4-dimethylcyclohex-1-en-1-yl]methyl}piperazin-1-yl)-2-(1H-indol-5-yloxy)-N-({3-nitro-4-[(3-pyrrolidin-1-ylpropyl)amino]phenyl}sulfonyl)benzamide] | 96.7 | 1052
10 | O=C(NS(=O)(=O)c1ccc(NCCCN2CCCC2)c([N+](=O)[O-])c1)c1ccc(N2CCN(CC3=C(c4ccc(Cl)cc4)CCC3)CC2)cc1Oc1cccc2[nH]ccc12 [Example 143, 4-(4-{[2-(4-chlorophenyl)cyclopent-1-en-1-yl]methyl}piperazin-1-yl)-2-(1H-indol-4-yloxy)-N-({3-nitro-4-[(3-pyrrolidin-1-ylpropyl)amino]phenyl}sulfonyl)benzamide] | 33.8 | >251
11 | CN1CCN(Nc2ccc(S(=O)(=O)NC(=O)c3ccc(N4CCN(CC5=C(c6ccc(Cl)cc6)CC(C)(C)CC5)CC4)cc3Oc3ccc4[nH]ccc4c3)cc2[N+](=O)[O-])CC1 [Example 174, 4-(4-{[2-(4-chlorophenyl)-4,4-dimethylcyclohex-1-en-1-yl]methyl}piperazin-1-yl)-2-(1H-indol-5-yloxy)-N-({4-[(4-methylpiperazin-1-yl)amino]-3-nitrophenyl}sulfonyl)benzamide] | 591.3 | 1857
12 | CN(C)CCOc1cccc(-c2ccc(Cl)cc2)c1CN1CCN(c2ccc(C(=O)NS(=O)(=O)c3ccc(NCC4CCOCC4)c([N+](=O)[O-])c3)c(Oc3ccccc3)c2)CC1 [Example 122, 4-[4-({4′-chloro-3-[2-(dimethylamino)ethoxy]-1,1′-biphenyl-2-yl}methyl)piperazin-1-yl]-N-({3-nitro-4-[(tetrahydro-2H-pyran-4-ylmethyl)amino]phenyl}sulfonyl)-2-phenoxybenzamide] | 209.4 | >1259
13 | CN(C)CCCNc1ccc(S(=O)(=O)NC(=O)c2ccc(N3CCN(Cc4ccccc4-c4ccc(Cl)cc4)CC3)cc2Oc2ccccc2)cc1[N+](=O)[O-] [Example 154, 4-{4-[(4′-chloro-1,1′-biphenyl-2-yl)methyl]piperazin-1-yl}-N-[(4-{[3-(dimethylamino)propyl]amino}-3-nitrophenyl)sulfonyl]-2-phenoxybenzamide] | 40.4 | 343
14 | CN(C)CCCNc1ccc(S(=O)(=O)NC(=O)c2ccc(N3CCN(Cc4ccccc4-c4ccc(Cl)cc4)CC3)cc2Oc2ccc3ccccc3c2)cc1[N+](=O)[O-] [Example 166, 4-{4-[(4′-chloro-1,1′-biphenyl-2-yl)methyl]piperazin-1-yl}-N-[(4-{[3-(dimethylamino)propyl]amino}-3-nitrophenyl)sulfonyl]-2-(2-naphthyloxy)benzamide] | 7.1 | >327
15 | CC1(C)CCC(CN2CCN(c3ccc(C(=O)NS(=O)(=O)c4ccc(NCCCN5CCCC5)c([N+](=O)[O-])c4)c(Oc4cccc5[nH]ccc45)c3)CC2)=C(c2cccc(F)c2)C1 [Example 72, 4-(4-{[2-(3-fluorophenyl)-4,4-dimethylcyclohex-1-en-1-yl]methyl}piperazin-1-yl)-2-(1H-indol-4-yloxy)-N-({3-nitro-4-[(3-pyrrolidin-1-ylpropyl)amino]phenyl}sulfonyl)benzamide] | 17.3 | >325
16 | CC1(C)CCC(c2ccc(Cl)cc2)=C(CN2CCN(c3ccc(C(=O)NS(=O)(=O)c4ccc(NCCCN5CCOCC5)c([N+](=O)[O-])c4)c(Oc4cccc5[nH]ccc45)c3)CC2)C1 [Example 54, 4-(4-{[2-(4-chlorophenyl)-5,5-dimethylcyclohex-1-en-1-yl]methyl}piperazin-1-yl)-2-(1H-indol-4-yloxy)-N-({4-[(3-morpholin-4-ylpropyl)amino]-3-nitrophenyl}sulfonyl)benzamide] | 108.3 | >785

Source: US9125913B2, “Bcl-2-selective apoptosis-inducing agents for the treatment of cancer and immune diseases” (AbbVie Inc., priority 2008, dated 2015)
